# Assay results from a melting point compilation (Tetko et al.).
row,melting point,SMILES
1,-17 °C,CCCCCCCCCCCCl
2,96 to 97 °C,Brc1ccc(Oc2c(Br)cccc2Br)c(Br)c1
3,170 °C,CC(C)NCC(O)COc1cccc2[nH]ccc12 (centres undefined)
4,50 °C,CSc1ccc(N=C=S)cc1
5,187 °C,O=C(O)c1cccc2cccnc12
6,160 °C,O=C1CCc2cc(OCCCCc3nnnn3C3CCCCC3)ccc2N1
7,103 to 106 °C,N#Cc1ccsc1N
8,197 to 198 °C,O=[N+]([O-])c1cc2c(cc1C/C(=N/Nc1ccccc1)c1ccccc1)n1n(-c3ccccc3)n21
9,314 °C,CC1(C)CC(=O)C2=C(C1)Nc1ccc3ccccc3c1C2c1ccccc1 (centres undefined)
10,195 °C,NC(=O)c1cnc2ccccc2n1
11,205 to 208 °C,N#Cc1c(N)oc(-c2ccccc2)c1-c1ccccc1
12,160 °C,Cc1nc2ccccc2[nH]c(=O)c1=NNc1cc(-c2ccccc2)n[nH]1
13,176 to 180 °C,NC(=S)c1ncc(C(F)(F)F)cc1N1CCCC1
14,262 °C,COc1ccc(C=Nn2c(S)nnc2CCn2c(C)nc3ccccc32)cc1
15,74 °C,COC1=C(OC)C(C(CBr)OC(C)=O)OC1=O (centres undefined)
16,93 to 94 °C,O=S(=O)(Cl)c1sccc1C1OCCO1
17,183 °C,O=C1NCNC1(c1ccccc1)c1ccccc1
18,55 °C,OC1C(Cl)(Cl)CCCC1(Cl)Cl
19,160 °C,NC(=O)c1cc(Cl)ccc1Cl
20,281 °C,CCC1(c2ccccc2)C(=O)NCNC1=O
21,187 °C,CCOC(=O)c1sc2sc(C(=O)OCC)c(C)c2c1C

row,melting point,SMILES
1,150 °C,O=NN1NC(=O)CC1c1ccc(C2CC(=O)NN2N=O)cc1 (centres undefined)
2,212 °C,O=C(C(=O)c1cc(Br)ccc1O)c1cc(Br)ccc1O
3,129 to 130 °C,O=C(c1ccc(Cl)cc1)c1cc2c(cc1Br)OCCO2
4,179 to 180 °C,O=C(Nc1ccccc1)OC1C=CC=CCC1OC(=O)Nc1ccccc1 (centres undefined)
5,65 to 67 °C,NNc1ccc(F)cc1F
6,36 to 39 °C,CCC(C)C(N)CO (centres undefined)
7,130 °C,O=C(O)Cc1cccc(I)c1
8,58 °C,O=C(O)CCc1ccco1
9,153 to 159 °C,CC(CO)(NC(=O)c1ccccc1)C(=O)O (racemic)
10,158 °C,NNC(=O)c1cccc(Cl)c1
11,146 °C,CCOC(=O)N1COCc2c1ccc1cc3ccc(NC)c(CO)c3nc21
12,83 to 84.5 °C,ClCc1ccc(-c2ncccn2)cc1
13,70 °C,CCOC(=O)c1c(C)oc2c(F)c(F)c(F)c(F)c12
14,174 to 178 °C,Cc1cc2oc(-c3ccccc3)cc(=O)c2cc1Cl
15,37.5 °C,CC(=O)N(C(C)=O)c1ccccc1
16,208 to 210 °C,CCOC(=O)c1csc(NC(=O)CCl)n1
17,42 °C,Nc1c(Br)cc(Br)cc1C(F)(F)F
18,-17 °C,C#CCCCCCCCC#C
19,97 to 99 °C,O=C(O)CCCCCCCCCCCCCCO
20,57 °C,Cc1ccc([Si](C)(Cl)Cl)cc1
21,58 to 60 °C,O=[N+]([O-])c1cccc(N=C=S)c1

row,melting point,SMILES
1,235 °C,c1ccc2cc(Nc3ccc(Nc4ccc5ccccc5c4)cc3)ccc2c1
2,50 to 55 °C,O=C=Nc1ccc(F)cc1[N+](=O)[O-]
3,90 °C,Cc1cccc(C)c1C#N
4,255 to 257 °C,CCOC(=O)c1cn[nH]c1NC(=O)Nc1ccc(F)cc1
5,174 °C,CC(=O)NCCNC(C)=O
6,109 °C,CCC(Br)(CC)C(=O)NC(=O)NC(C)=O
7,25 to 29 °C,CCCCCCCCCCCCCCCCc1ccccc1
8,179 °C,COc1c2ccoc2cc2oc(COC3OC(CO)C(O)C(O)C3O)cc(=O)c12 (centres undefined)
9,120 °C,CC(C)C1OC(=O)C2CCC1(C)OC2(C)C (centres undefined)
10,125 to 128 °C,Cc1nn(-c2ccccc2)c(C)c1C=O
11,87 to 90 °C,N#Cc1ccc(OCCN2CCOCC2)cc1
12,160 to 165 °C,O=C(O)c1c(O)cccc1O
13,73 to 87 °C,Cc1ccc(Sc2ccc(C(=O)c3ccccc3)cc2)cc1
14,102 to 103 °C,N=c1sc(C(=O)c2cccs2)nn1-c1[nH]nc(-c2ccccc2)c1Br
15,93 to 94 °C,OCc1csc2ccc(Cl)cc12
16,216 to 217 °C,O=C1C(=Cc2ccc(Cl)cc2)SC(=S)N1CNc1ccc([N+](=O)[O-])cc1
17,2 °C,OC1CCCCCC1
18,130 to 133 °C,O=C1N[C@@H](c2ccccc2)CO1
19,-75 °C,CC1CCC(C)C(C)C1C (centres undefined)
20,-31 °C,C=Cc1ccccc1
21,151 °C,OCC(O)C(O)C(OC1OC(CO)C(O)C(O)C1O)C(O)CO (centres undefined)

row,melting point,SMILES
1,243 to 245 °C,COc1ccc(C=C2C(=O)NC(=N)N2C)cc1OC
2,151 to 153 °C,COC(=O)c1cc2ccccc2[nH]1
3,158 to 162 °C,O=C1NCCSC1c1ccccc1 (centres undefined)
4,66 °C,Nc1ccc(Cl)cc1Br
5,118 °C,Cc1cccc2cc3ccc4ccccc4c3cc12
6,243 to 245 °C,NC(CC(=O)O)c1ccc(Cl)cc1 (centres undefined)
7,171 °C,Cc1ccc2cc3c(cc2n1)CCC(C)N3 (centres undefined)
8,194 to 198 °C,O=C(O)c1cccc2c1C(=O)c1ccccc1-2
9,94 to 98 °C,Nc1ncccc1OCc1ccccc1
10,198 °C,Cc1nnc(SCC2=C(C(=O)O)N3C(=O)C(NC(=O)Cn4cnnn4)C3SC2)s1 (centres undefined)
11,270 °C,c1ccc2c(c1)ccc1ccc3ccc4ccc5cccnc5c4c3c12
12,246 to 248 °C,O=C1c2ccc(C(Br)Br)c([N+](=O)[O-])c2C(=O)c2c(Cl)c(Cl)c(Cl)c(Cl)c21
13,99.5 to 102 °C,N#Cc1ccc(CS(=O)(=O)Cl)cc1
14,288 to 291 °C,O=C(O)c1ccc(-n2cccc2)cc1
15,75 °C,Clc1ccc(CSc2ccc(Cl)cc2)cc1
16,92 °C,COC(=O)c1cc(C)on1
17,115 °C,COc1c(F)c(F)cc(C(=O)O)c1F
18,188 to 191 °C,O=C(O)c1ccc2c(c1)OCCOCCOCCOCCO2
19,215 to 217 °C,Oc1noc2cc(Cl)ccc12
20,108 to 112 °C,C=CC(=O)Nc1ccc2c(c1)OCCOCCOCCOCCOCCO2
21,198 °C,O=C(O)c1ncc[nH]1

row,SMILES,melting point
1,CC(C)OC(=O)C(O)(c1ccc(Cl)cc1)c1ccc(Cl)cc1,73 °C
2,CC(=O)C=C(C)C,-53 °C
3,CC1(C(=O)O)CCCC2(C)c3cc(O)ccc3CCC12 (centres undefined),194 °C
4,O=C(Nc1ccccc1)C(Cl)(Cl)Cl,96 °C
5,ICCCCCCCCI,16 to 21 °C
6,CC(=O)Oc1ccc(C#N)cc1,57 °C
7,CC1CC(=O)CC2CCC3C4CCC(O)C4(C)CCC3C12C (centres undefined),204 °C
8,Cc1c(N)cc([N+](=O)[O-])cc1[N+](=O)[O-],174 °C
9,Oc1ccc2c(c1)C13CCCCC1C(C2)N(CCc1ccccc1)CC3 (centres undefined),244 °C
10,N#CC(N)=C(N)C#N,178 to 179 °C
